Experimental data reported in patent US12528808B2, “Therapy for erythropoietic protoporphyria (EPP) and X-linked protoporphyria (XLP)” (UNIVERSITY OF PITTSBURGH-OF THE COMMONWEALTH SYSTEM OF …, priority 2019, dated 2026).
“Also recorded” adds a separate entry of the source. Read-outs that look alike come from different tables or passages of the source.

How the values were obtained:
[1] = Pharmacokinetic study in mice; assay type: in vivo; settings: WT mice, 50 mg/kg by gavage, serum, FIG. 11
Protocol: Pharmacokinetic Study in Mice.
Blood was collected at 0, 0.25, 0.5, 1, 2, 4, 8, 12, 24 h after treatment. The concentration of target compound in serum was analyzed by UPLC-QTOFMS.

ABCG2 = biological target: T1, ABCG2 (Homo sapiens, UniProt Q9UNQ0); assay: Protoporphyrin IX (PPIX)-based ABCG2 inhibition assay using the A549 cancer cell line; settings: read-out: IC50, the half maximal inhibitory concentration
T1 construct: developed using the A549 cancer cell line; endogenous in cells; host or cells: A549 cancer cell line
T1 sequence (Q9UNQ0 1-655): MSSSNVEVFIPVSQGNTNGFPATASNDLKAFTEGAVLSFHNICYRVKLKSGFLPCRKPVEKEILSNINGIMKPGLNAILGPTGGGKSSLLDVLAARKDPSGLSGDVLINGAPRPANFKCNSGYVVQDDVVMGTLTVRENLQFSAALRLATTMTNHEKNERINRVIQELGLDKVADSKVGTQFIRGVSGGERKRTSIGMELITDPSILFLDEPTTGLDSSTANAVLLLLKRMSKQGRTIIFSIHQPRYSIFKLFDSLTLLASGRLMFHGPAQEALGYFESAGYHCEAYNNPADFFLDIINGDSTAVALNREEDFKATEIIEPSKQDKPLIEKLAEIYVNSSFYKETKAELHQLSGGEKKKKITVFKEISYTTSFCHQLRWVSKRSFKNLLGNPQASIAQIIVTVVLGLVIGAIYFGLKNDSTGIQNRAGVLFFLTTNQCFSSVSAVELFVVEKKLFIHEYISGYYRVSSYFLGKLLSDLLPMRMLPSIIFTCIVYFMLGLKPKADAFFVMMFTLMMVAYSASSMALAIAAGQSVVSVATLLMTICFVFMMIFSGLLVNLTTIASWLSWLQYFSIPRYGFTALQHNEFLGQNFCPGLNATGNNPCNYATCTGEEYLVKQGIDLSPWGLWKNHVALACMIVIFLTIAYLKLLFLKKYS
Text: A Protoporphyrin IX(PPIX)-based ABCG2 inhibition assay was developed using the A549 cancer cell line.

[2] = Metabolic stability assay, incubation with human liver microsomes (HLM); assay type: in vitro ADME; settings: remaining parent compound
Protocol: Metabolic Stability Assay.
After the incubation (0-60 min), the remaining parent compounds were analyzed by UPLC-QTOFMS.

RBCs of Fech-mut mice = assay: Effect on PPIX efflux from RBCs; assay type: cell-based; settings: 10 μM, FIG. 14
Text: Effects of ABCG2 Inhibitors on PPIX Efflux from RBCs.
PPIX in RBCs and culture medium was extracted, respectively, and analyzed by UPLC-QTOFMS.

Fech-mut mice = assay: Efficacy against EPP-associated phototoxicity in vivo (Fech-mut mouse model)
Protocol: Efficacy of ABCG2 Inhibitors Against EPP-Associated Phototoxicity In Vivo.
The Fech-mut mouse model was used as an EPP model to determine the efficacy of ABCG2 inhibitors against EPP-associated phototoxicity, the most common symptom in EPP patients (6-8). […] After 5 days' treatment, all mice were sacrificed for evaluation of skin damage.
Thirty minutes after treatment, the mice were exposed to UV light for 30 minutes. The same treatment (drug plus light exposure) was repeated once daily for 4 days. From the 5th day, drug treatment was stopped, but the light exposure was continued for 4 more days. The gross appearance of mouse skin was recorded every day. On the 9th day, all mice were sacrificed and the back skin was collected for evaluation of phototoxicity.

carboxylesterase 1 = biological target: T2, carboxylesterase 1 (Homo sapiens, UniProt P23141); assay: Hydrolysis of tert-butyl ester group by carboxylesterase 1; assay type: in vitro ADME
T2 sequence (P23141 18-567): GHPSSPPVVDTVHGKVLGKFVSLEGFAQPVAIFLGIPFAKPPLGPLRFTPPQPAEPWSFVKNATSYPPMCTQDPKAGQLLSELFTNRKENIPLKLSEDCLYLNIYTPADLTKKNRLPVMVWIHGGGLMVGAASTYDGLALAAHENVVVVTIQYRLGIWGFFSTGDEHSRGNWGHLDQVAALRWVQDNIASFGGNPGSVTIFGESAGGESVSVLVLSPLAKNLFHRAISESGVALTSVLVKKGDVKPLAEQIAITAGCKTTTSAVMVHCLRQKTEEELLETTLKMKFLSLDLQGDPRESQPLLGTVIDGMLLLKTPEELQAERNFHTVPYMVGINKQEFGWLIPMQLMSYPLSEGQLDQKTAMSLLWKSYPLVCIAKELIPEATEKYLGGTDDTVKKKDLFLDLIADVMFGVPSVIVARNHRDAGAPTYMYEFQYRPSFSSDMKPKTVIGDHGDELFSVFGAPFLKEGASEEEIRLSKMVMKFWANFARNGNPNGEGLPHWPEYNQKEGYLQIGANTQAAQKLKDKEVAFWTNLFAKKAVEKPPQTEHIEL

WT and Abcg2-null mice = assay: Chemically-induced PPIX accumulation and hepatotoxicity in WT and Abcg2-null mice; settings: DDC 0.1% or GSF 2.5% in diet, two weeks
Protocol: Animal Studies to Determine the Role of ABCG2 in Chemically-Induced PPIX Accumulation and Hepatotoxicity
WT and Abcg2-null mice were treated with DDC (0.1% in diet) or GSF (2.5% in diet) for two weeks. In addition, hPXR and hPXR/Abcg2-null mice were treated with RIF (100 mg/Kg diet) and INH (400 mg/L drinking water) for four weeks. After the treatment, blood and liver samples were collected for evaluation of liver injury and analysis of PPIX.
Liver injury was evaluated by analyzing serum alanine aminotransaminase (ALT), aspartate aminotransferase (AST), alkaline phosphatase (ALP) (Pointe Scientific Canton, MI), and total bilirubin (Sigma-Aldrich, St. Louis, MO). These liver injury biomarkers were analyzed according to the standard procedures provided by the manufacturers. Blood toxicity was evaluated by analyzing mean corpuscular hemoglobin (MCH) (HESKA HemaTrue; Loveland, CO) and total hemoglobin (tHb) (AVOXimeter 4000; Edison, NJ).
Liver and skin tissues were first fixed in 4% formaldehyde phosphate solution overnight and then dehydrated and embedded in paraffin. […] sections were cut and stained. For hematoxylin and eosin (H&E) staining, tissue sections were stained in hematoxylin solution for 5 min, washed with tap water for 1 min, and then differentiated in 1% acetic acid solution for 1 min and followed by staining in eosin solution for 1 min. For Sirius Red Staining, tissue sections were stained in 0.1% PicroSirius Red solution for 1 h, and then washed with 1% acetic acid solution twice.

[3] = read-out: CC50, the 50% cytotoxic concentration, MTT assay

Compound	IC50 (ABCG2) [µM]	HLM stability (% vs 0 min) 30 min [2] [%]	HLM stability (% vs 0 min) 60 min [2] [%]	CC50 (MTT cytotoxicity assay; [3]) [µM]	further results
COc1ccc2c3c([nH]c2c1)[C@H](CC(C)C)N1C(=O)[C@H](CC(=O)NC(C)C)NC(=O)[C@@H]1C3 [Compound K31, 2-((3S,6S,12aS)-6-isobutyl-9-methoxy-1,4-dioxo-1,2,3,4,6,7,12,12a-octahydropyrazino[1′,2′:1,6]pyrido[3,4-b]indol-3-yl)-N-isopropylacetamide]	0.27	65	49	> 100	pharmacokinetic profile ([1]; 50 mg/kg): better pharmacokinetic profiles than KO143; also recorded: ideal pharmacokinetic profile; PPIX efflux from RBCs (RBCs of Fech-mut mice): significantly inhibited PPIX efflux from RBCs; protection from phototoxicity in EPP mouse model (Fech-mut mice; Fech-mut mice pretreated 30 min, then UV light (395-410 nm) 30 min, 5 days, FIG. 12): fully protected the EPP mice from phototoxicity; phototoxicity after withdrawal (withdrawal test) (Fech-mut mice; Fech-mut mice, 100 mg/kg po plus light day 1 to 4, light only from day 5, FIG. 13): showed phototoxicity soon after the withdrawal of K31
COc1ccc2c3c([nH]c2c1)[C@H](CC(C)C)N1C(=O)[C@H](CCC(=O)NC(C)C)NC(=O)[C@@H]1C3 [Compound K34, 3-((3S,6S,12aS)-6-isobutyl-9-methoxy-1,4-dioxo-1,2,3,4,6,7,12,12a-octahydropyrazino[1′,2′:1,6]pyrido[3,4-b]indol-3-yl)-N-isopropylpropanamide]	–	–	–	–	pharmacokinetic profile [1]: better pharmacokinetic profiles than KO143
COc1ccc2c3c([nH]c2c1)[C@H](CC(C)C)N1C(=O)[C@H](CCC(=O)OC(C)(C)C)NC(=O)[C@@H]1C3 [KO143, reference compound]	–	–	–	–	pharmacokinetic profile [1]: poor oral pharmacokinetic profile; stability (hydrolysis of tert-butyl ester group) (carboxylesterase 1): very unstable
COc1ccc2c3c([nH]c2c1)[C@H](CC(C)C)N1C(=O)[C@H](CC(=O)N2CCCCC2)NC(=O)[C@@H]1C3 [Compound K25, (3S,6S,12aS)-6-isobutyl-9-methoxy-3-(2-oxo-2-(piperidin-1-yl)ethyl)-2,3,12,12a-tetrahydropyrazino[1′,2′:1,6]pyrido[3,4-b]indole-1,4(6H,7H)-dione]	3.14	–	–	26.5	–
COc1ccc2c3c([nH]c2c1)[C@H](CC(C)C)N1C(=O)[C@H](CCC(=O)NC(C)(C)C)NC(=O)[C@@H]1C3 [Compound K2, N-(tert-butyl)-3-((3S,6S,12aS)-6-isobutyl-9-methoxy-1,4-dioxo-1,2,3,4,6,7,12,12a-octahydropyrazino[1′,2′:1,6]pyrido[3,4-b]indol-3-yl)propanamide]	–	–	–	–	pharmacokinetic profile [1]: better pharmacokinetic profiles than KO143
COc1ccc2c3c([nH]c2c1)[C@H](CC(C)C)N1C(=O)[C@H](CC(=O)NC(C)(C)C)NC(=O)[C@@H]1C3 [Compound K3, N-(tert-butyl)-2-((3S,6S,12aS)-6-isobutyl-9-methoxy-1,4-dioxo-1,2,3,4,6,7,12,12a-octahydropyrazino[1′,2′:1,6]pyrido[3,4-b]indol-3-yl)acetamide]	0.18	74	60	58.9	–
COc1ccc2c3c([nH]c2c1)[C@H](CC(C)C)N1C(=O)[C@H](CCCCNC(=O)C(C)(C)C)N(C(=O)C(C)(C)C)C(=O)[C@@H]1C3 [Compound K11, N-(4-((3S,6S,12aS)-6-isobutyl-9-methoxy-1,4-dioxo-2-pivaloyl-1,2,3,4,6,7,12,12a-octahydropyrazino[1′,2′:1,6]pyrido[3,4-b]indol-3-yl)butyl)pivalamide]	–	7	7	–	CC50 (MTT cytotoxicity assay): 39.6 µM
COc1ccc2c3c([nH]c2c1)[C@H](CC(C)C)N1C(=O)[C@H](CC(=O)NC2CCCCC2)NC(=O)[C@@H]1C3 [Compound K23, N-cyclohexyl-2-((3S,6S,12aS)-6-isobutyl-9-methoxy-1,4-dioxo-1,2,3,4,6,7,12,12a-octahydropyrazino[1′,2′:1,6]pyrido[3,4-b]indol-3-yl)acetamide]	0.13	45	26	46.6	–
COC1=CC(=O)C[C@@H](C)[C@]12Oc1c(Cl)c(OC)cc(OC)c1C2=O [GSF, griseofulvin]	–	–	–	–	liver damage, PPIX accumulation, bile plugs (WT and Abcg2-null mice; Abcg2-null mice): these effects failed to occur; liver damage, PPIX accumulation, bile plugs (WT and Abcg2-null mice; WT mice): caused liver damage, PPIX accumulation, and bile plugs
CCOC(=O)C1=C(C)NC(C)=C(C(=O)OCC)C1C [DDC, 3,5-diethoxycarbonyl-1,4-dihydrocollidine]	–	–	–	–	liver damage, PPIX accumulation, bile plugs (WT and Abcg2-null mice; Abcg2-null mice): these effects failed to occur; liver damage, PPIX accumulation, bile plugs (WT and Abcg2-null mice; WT mice): caused liver damage, PPIX accumulation, and bile plugs
COc1ccc2c3c([nH]c2c1)[C@H](CC(C)C)N1C(=O)[C@H](CC(=O)NCc2ccccc2)NC(=O)[C@@H]1C3 [Compound K33, N-benzyl-2-((3S,6S,12aS)-6-isobutyl-9-methoxy-1,4-dioxo-1,2,3,4,6,7,12,12a-octahydropyrazino[1′,2′:1,6]pyrido[3,4-b]indol-3-yl)acetamide]	0.25	37	18	31.1	–
